Experimental findings from US20010009912A1, “NEW DERIVATIVES OF PYRIDIL PIPERAZINE OR PYRIDAZINYL PIPERAZYL, PROCESS FOR PRODUCTION THEREOF AND MEDICAMENTS CONTAINING THESE COMPOUNDS” (priority 1995, published 2001) are described below.

This experiment deals with isolated activated GpIIb/IIIa receptor (Homo sapiens, UniProt P05106+P08514). The experiment can be described thus: GpIIb/IIIa-Fibrinogen-ELISA (inhibition of fibrinogen binding to coated receptor). To be noted: inhibition of fibrinogen-GpIIb/IIIa interaction, O.D. at 405 nm. The protocol: Microtitre plates are coated overnight with 2 μg/ml isolated activated GpIIb/IIIa receptor. After removing the unbound receptor by several washing steps, the surface of the plates is blocked with 1% casein and washed again. The test substance is added in the required concentrations and the plates are incubated for 10 minutes while shaking in a linear shaker. The natural ligand of the gpIIb/IIIa receptor, fibrinogen, is added. After 1 hour of incubation the unbound fibrinogen is removed by several washing steps and bound fibrinogen is detected by a peroxidase-conjugated anti-fibrinogen monoclonal antibody by measuring the O.D. at 405 nm in an ELISA-reader. Inhibition of fibrinogen-GpIIb/IIIa interaction results in a low O.D. An IC50 is calculated in relation to a concentration-effect curve.
The GpIIb/IIIa-Fibrinogen-ELISA is a modification of the assays described in the following literature:
Nachman, R. L. & Leung, L. L. K. (1982): Complex formation of platelet membrane glycoproteins IIb and IIIa with fibrinogen. J. Clin. Invest. 69:263-269. Wright, P. S. et al. (1993): An echistatin C-terminal peptide activated GpIIbIIIa binding to fibrinogen, fibronectin, vitronectin and collagen type I and type IV. Biochem. J. 293:263-276.
A general note: In an ELISA, binding on a coated surface is turned into a signal by an enzyme label.

Chain of isolated activated GpIIb/IIIa receptor (P08514 32-887 limits assumed): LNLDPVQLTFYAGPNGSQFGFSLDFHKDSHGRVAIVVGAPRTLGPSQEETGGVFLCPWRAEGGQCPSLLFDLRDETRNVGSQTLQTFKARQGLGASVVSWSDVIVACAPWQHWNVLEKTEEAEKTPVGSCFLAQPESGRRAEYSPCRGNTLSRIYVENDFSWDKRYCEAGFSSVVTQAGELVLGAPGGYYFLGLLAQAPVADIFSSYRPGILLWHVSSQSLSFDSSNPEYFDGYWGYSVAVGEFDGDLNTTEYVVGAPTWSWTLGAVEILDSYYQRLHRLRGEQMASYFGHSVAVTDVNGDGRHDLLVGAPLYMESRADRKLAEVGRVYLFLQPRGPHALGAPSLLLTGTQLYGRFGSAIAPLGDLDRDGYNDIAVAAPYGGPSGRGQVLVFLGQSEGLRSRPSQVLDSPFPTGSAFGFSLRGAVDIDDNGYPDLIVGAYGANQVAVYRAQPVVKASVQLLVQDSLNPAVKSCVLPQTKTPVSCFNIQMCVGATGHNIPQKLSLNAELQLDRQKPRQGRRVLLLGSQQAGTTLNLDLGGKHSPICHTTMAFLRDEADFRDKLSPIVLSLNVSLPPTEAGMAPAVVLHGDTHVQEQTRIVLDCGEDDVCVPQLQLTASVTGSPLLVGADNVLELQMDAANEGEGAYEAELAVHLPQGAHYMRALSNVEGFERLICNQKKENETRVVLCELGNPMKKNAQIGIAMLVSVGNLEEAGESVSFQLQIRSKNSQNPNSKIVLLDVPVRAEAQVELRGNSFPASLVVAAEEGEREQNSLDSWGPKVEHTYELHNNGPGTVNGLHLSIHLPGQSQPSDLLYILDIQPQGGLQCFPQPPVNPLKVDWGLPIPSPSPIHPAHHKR
Chain of isolated activated GpIIb/IIIa receptor (P08514 891-1039 partner limits assumed): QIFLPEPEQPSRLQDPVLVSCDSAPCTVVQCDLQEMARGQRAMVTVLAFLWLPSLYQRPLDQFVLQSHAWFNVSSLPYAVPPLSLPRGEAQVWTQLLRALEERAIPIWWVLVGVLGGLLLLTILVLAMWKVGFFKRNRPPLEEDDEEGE
Chain of isolated activated GpIIb/IIIa receptor (P05106 27-788): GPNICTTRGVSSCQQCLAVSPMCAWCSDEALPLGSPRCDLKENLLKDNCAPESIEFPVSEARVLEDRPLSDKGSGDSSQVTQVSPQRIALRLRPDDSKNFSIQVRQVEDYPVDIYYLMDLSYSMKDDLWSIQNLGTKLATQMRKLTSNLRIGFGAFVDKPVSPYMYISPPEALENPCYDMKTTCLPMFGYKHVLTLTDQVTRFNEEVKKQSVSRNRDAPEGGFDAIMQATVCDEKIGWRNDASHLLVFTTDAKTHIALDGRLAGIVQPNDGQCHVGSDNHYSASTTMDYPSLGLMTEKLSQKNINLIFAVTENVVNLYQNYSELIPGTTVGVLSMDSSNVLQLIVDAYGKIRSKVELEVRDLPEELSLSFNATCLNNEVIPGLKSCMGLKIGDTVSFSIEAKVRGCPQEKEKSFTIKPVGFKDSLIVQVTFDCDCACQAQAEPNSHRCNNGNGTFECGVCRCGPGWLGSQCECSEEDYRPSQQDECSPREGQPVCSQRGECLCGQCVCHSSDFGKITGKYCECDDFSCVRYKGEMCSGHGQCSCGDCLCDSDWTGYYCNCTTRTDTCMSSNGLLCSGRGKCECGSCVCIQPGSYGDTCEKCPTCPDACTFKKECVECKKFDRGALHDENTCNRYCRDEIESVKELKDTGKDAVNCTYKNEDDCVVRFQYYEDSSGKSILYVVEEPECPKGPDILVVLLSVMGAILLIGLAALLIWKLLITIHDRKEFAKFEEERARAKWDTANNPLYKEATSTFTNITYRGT

In the case of `O=C(O)CC1CCC(CCN2CCN(c3ccncc3)CC2)CC1` (centres unmarked) [Example 4, {4-[2-(4-Pyridin-4-yl-piperazin-1-yl)-ethyl]-cyclohexyl} -acetic acid], the half-inhibitory concentration (IC50) (as a rule, the concentration needed to halve the response being measured) is 100 nM. In the case of `O=C(O)CC1(O)CCC(N2CCN(c3ccncc3)CC2)CC1` (stereo not drawn) [cis-1-hydroxy-4-[4-(4-pyridyl)-piperazin-1-yl] -acetic acid] it was 2500 nM.
